Laboratory results as given in patent US20220268780A1, “METHODS OF PREDICTING ENDOMETRIAL RECEPTIVITY” (HUDSON INSTITUTE OF MEDICAL RESEARCH, priority 2019, published 2022).

System: PCX mRNA in Ishikawa cells
Experiment: Transfection of miRNA mimics into Ishikawa cells, PCX mRNA by real-time RT-PCR
Assay type: cell-based, human
Conditions: mimic 5 μm, 24 h after transfection
Experimental: To confirm that these two miRNAs can directly down-regulate PCX, mimics of these miRNAs were transfected into a human endometrial epithelial Ishikawa cell line and the impact on the level of PCX expression examined.
Ishikawa cells were cultured overnight in a 12-well plate (3.0×10^5 per well) in complete medium containing MEM (Thermo Fisher Scientific) supplemented with 10% FCS, 1% L-glutamine (Sigma) and 1% antibiotic-antimycotic. The following day, cells were replenished with Opti-MEM for transfection. Control and miRNA mimics (5 μm, all from Thermo Fisher Scientific) were transfected into Ishikawa cells using Lipofectamine RNAiMAX Transfection Reagent (Thermo Fisher Scientific) for 24, 48, 72 h respectively, and PCX mRNA levels were examined by real-time RT-PCR. Combination of the two miRNAs (5 μm each) was also tested.

## miR-199: miRNA mimic (Thermo Fisher Scientific); sequence CCCAGUGUUCAGACUACCUGUUC, SEQ ID NO: 31 (chemistry not given here)
  repression of PCX mRNA: ~34%

## miR-145: miRNA mimic (Thermo Fisher Scientific); sequence GUCCAGUUUUCCCAGGAAUCCCU, SEQ ID NO: 33 (chemistry not given here)
  repression of PCX mRNA: ~34%
